Reference: article PMC4503980 (Scientific Reports, 2015)

Columns and labels:
PSD-95/cypin-interaction = test system: PSD-95/cypin-interaction; design: method as in PMID 19732061; conditions: cited from earlier work
nNOS-PDZ = molecular target: T1, nNOS-PDZ (Homo sapiens, UniProt P29475); assay: FP saturation and inhibition assay, Cy5-Nav1.4 probe / nNOS-PDZ; format: binding; conditions: concentrations reaching 500–1800 μM; Cy5-Nav1.4 50 nM; [nNOS-PDZ] = 20 μM (ZL006) or 10 μM (IC87201)
T1 construct: nNOS-PDZ (12–130, human); made in house; host or cells: E. coli
T1 sequence (P29475 12-130): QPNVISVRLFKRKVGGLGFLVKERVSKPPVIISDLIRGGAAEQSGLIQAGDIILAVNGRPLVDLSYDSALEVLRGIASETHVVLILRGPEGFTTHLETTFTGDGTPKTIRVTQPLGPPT
Method: Fluorescent probes were made by attaching fluorophores (Cy5) to C-terminal 10- or 11-mer (C10 or C11) peptide ligands representing canonical and natural occurring protein partners (Supplementary Table S1). […] (Fig. 2).
(b) Cy5-GluN2B as probe (50 nM), [PDZ2] = 6 μM. (c) Cy5-CRIPT as probe (50 nM), [PDZ3] = 5 μM. […] Error bars indicate SEM based on three individual measurements.
nNOS-PDZ (12–130, human) and α-Syntrophin-PDZ (82–200, human), both comprising an N-terminal His-tag/FXa-site sequence ([…]), were likewise expressed in E. coli and purified by HisTrap chromatography followed by gel-filtration as described in details previously. To make the TAMRA-labelled nNOS-PDZ, mutant nNOS-PDZ (V36C) protein was generated by standard site-directed mutagenesis and characterized as described previously. Here, dithiothreitol was added to the pooled protein sample after HisTrap purification to a final concentration of 10 mM to eliminate unwanted disulfide bonds, and a final gel-filtration (50 mM NaPi buffer pH 7.5) was performed to remove impurities and salts. Next, purified nNOS-PDZ (V36C) was desalted by dialysis into 50 mM (NH4)2CO3 buffer (SnakeSkin dialysis tubing 3.5 MWCO, Pierce, Rockford, IL, USA) and subsequently lyophilized. nNOS-PDZ (V36C) was redissolved in 500 μL buffer (6 M GnHCl, 200 mM NaPi) and solid TAMRA-maleimide (5-tetramethylrhodamine-C2-maleimide; Anaspec, Fremont, CA, USA) was added in excess (cf. ESI-LC-MS). The coupling reaction was incubated at room temperature for 16 hours and TAMRA-labelled nNOS-PDZ was purified by preparative HPLC, and refolded in assay buffer. Functional validation was performed by FP[19], and all final proteins were characterized for purity and identity by SDS-PAGE and ESI-LC-MS.
Incubation time was 10–15 minutes (room temperature), and the assay was performed in a 1 × TBS buffer (150 mM NaCl, 10 mM Tris, pH 7.4) using black flat-bottom 384-well plates (Corning Life Sciences, NY) and a Safire2 plate-reader (Tecan, Männedorf, Switzerland). G-factor was adjusted so that probe alone (i.e. without protein interacting-partner) would give an FP value of 20 mP. This background value was subsequently subtracted from the raw data before plotting and analyzing the data. TAMRA- and Cy5-probes were measured at excitation/emission values of 530/585 nm (bandwidth = 20 nm) and 635/670 nm (bandwidth = 15 nm), respectively. […]
FP values were fitted to the general equation: Y = Bottom + (Top–Bottom)/[1 + (10^(X-logIC50)*HillSlope)], where X is the logarithmic value of peptide/compound concentration, and Y is the experimental FP values. Competitive inhibition constants, Ki values, were calculated from the IC50 values to quantify affinities between test substance and protein[42]. […]

[1] = test system: 34 targets in a panel of receptors, ion channels, and transporters; design: method as in PMID 19732061; conditions: cited from earlier work
nNOS/PSD-95 interaction [2] = test system: nNOS/PSD-95 interaction; design: method as in PMID 19732061; conditions: cited from earlier work
[3] = test system: NMDA-induced 3′,5′-cyclic guanosine monophosphate (cGMP) production; design: method as in PMID 19732061; conditions: hippocampal cultures; cited from earlier work
two mice pain models = test system: two mice pain models; design: method as in PMID 19732061; conditions: cited from earlier work
neurons = test system: neurons; design: method as in PMID 21102461; conditions: cited from earlier work
PSD-95/SynGAP = test system: PSD-95/SynGAP; design: method as in PMID 21102461; conditions: cited from earlier work
nNOS/CAPON = test system: nNOS/CAPON; design: method as in PMID 21102461; conditions: cited from earlier work
nNOS [4] = test system: nNOS; design: method as in PMID 21102461; conditions: cited from earlier work
[5] = test system: animal ischemic stroke models; design: method as in PMID 21102461; conditions: not when the nNOS gene was knocked out; cited from earlier work
[6] = test system: NMDA receptor-mediated NO synthesis; design: method as in PMID 21102461; conditions: cited from earlier work
NMDA receptor = test system: NMDA receptor; design: method as in PMID 21102461; conditions: cited from earlier work
nNOS [7] = test system: nNOS; design: method as in PMID 21102461; conditions: cited from earlier work; remark: listed apart in the source
nNOS/PSD-95 interaction [8] = test system: nNOS/PSD-95 interaction; design: method as in PMID 21102461; conditions: extracts from glutamate- or ischemia-induced cultured neurons and cortical brain; cited from earlier work

Structure (SMILES) | effect on PSD-95/cypin-interaction (PSD-95/cypin-interaction) | inhibition of probe-PDZ interaction (nNOS-PDZ) (nNOS-PDZ) | effect on 34 targets in a panel of receptors, ion channels, and transporters [1] | disruption of nNOS/PSD-95 interaction in vitro (nNOS/PSD-95 interaction [2]) | NMDA-induced cGMP production [3] | analgesic properties (two mice pain models) | neuroprotective properties in neurons (neurons) | inhibition of PSD-95/SynGAP (PSD-95/SynGAP) | inhibition of nNOS/CAPON (nNOS/CAPON) | effect on nNOS catalytic activity (nNOS [4]) | neuroprotective properties in animal ischemic stroke models [5] | NMDA receptor-mediated NO synthesis [6] | effect on NMDA receptor function (ion flux) (NMDA receptor) | effect on nNOS expression (nNOS [7]) | inhibition of nNOS/PSD-95 interaction (co-immunoprecipitation) (nNOS/PSD-95 interaction [8])
Oc1c(Cl)cc(Cl)cc1CNc1ccc2[nH]nnc2c1 [IC87201, 2-((1H-Benzo[d][1–3]triazol-5-ylamino)methyl)-4-6-dichlorophenol] | did not affect | did not inhibit | did not affect | disrupt | blocked | analgesic properties |  |  |  |  |  |  |  |  | 
O=C(O)c1ccc(NCc2cc(Cl)cc(Cl)c2O)cc1O [ZL006, 4-((3,5-Dichloro-2-hydroxybenzyl)amino)-2-hydroxybenzoic acid] |  | did not inhibit |  |  |  |  | robust neuroprotective properties | not inhibited | not inhibited | did not affect | robust neuroprotective properties | inhibited | did not affect | did not affect | inhibit
